Like-named read-outs stand apart in the source and are kept apart here.
Columns and labels:
MV4-11 cells = assay: Therapeutic effect on the MV4-11 acute myeloid leukemia model; assay type: in vivo, NOD/SCID mice; settings: MV4-11 model, 50 mg/kg intravenously once every other day, 12 times
HCT116 cells = assay: Therapeutic effect on the colon cancer HCT116 model (intravenous)
Colon cancer HT29 = assay: Cell proliferative activity (MTT / cck-8); assay type: cell-based; settings: Homo sapiens, HT-29, read-out: Half-Inhibitory Concentration IC50 HT29
HBL-1 cells = assay: Therapeutic effect on the B-cell lymphoma HBL-1 subcutaneous tumor model; assay type: in vivo, NOD/SCID mice; settings: HBL-1 model, 9 times, vs solvent group
Ovarian cancer A2780s = assay: Cell proliferative activity (MTT / cck-8); assay type: cell-based; settings: Homo sapiens, read-out: Half-Inhibitory Concentration IC50 A2780s
[1] = Assay on the bioavailability in SD rats (plasma, LC-MS/MS); assay type: in vivo; settings: for Area under the curve / Clearance rate / Distribution volume / Half-life / Maximum plasma concentration: dose 12 mg/kg (Table 6)
[2] = test system: acetylation level of HDAC substrate (Ac-α-tubulin, Ac-H3); assay: Western blot assay for detecting the level of acetylated proteins; assay type: cell-based; settings: HCT116 cells (FIG. 3) or MV4-11 cells (FIG. 4)
Experimental: The compounds or the positive control compound were added into each group of cells already adherent to the walls (2×10^6 HCT116 cells or 5×10^6 MV4-11 cells) at a designed concentration. After treatment for 4 hours, trypsin was added for digestion, followed by collecting the cells. After washing with cold PBS twice, the cells were lysed by adding RIPA lysis solution (which was purchased from Beyotime, Art. No.: P0013B, adding 1 mM PMSF before use), allowing for lysis on ice for 30 minutes while vortexing at intervals. The lysate was subjected to ultrasonic treatment on an ice bath (ultrasonicated for 3 seconds and repeated 5 times for each group at an interval of 10 seconds). The supernatant was collected by centrifugation at 12,000 g for 20 min at 4° C. and then mixed the SDS-PAGE loading buffer (purchased from Beyotime, Art. No.: P0015F). The mixture was heated in boiling water for 5 minutes to obtain a protein sample. The protein concentration of the sample was quantified by BCA method. 20 […] total protein from each group was subjected to 15% SDS-PAGE electrophoresis, and 5μl of a pre-stained protein marker (purchased from Thermo, Art. No.: 26616) was loaded to an additional selective lane in order to compare protein molecular weights as well as to detect the transmembrane result. When the bromophenol blue bands ran close to the bottom of the gel, the electrophoresis was terminated and the proteins on the gel were transferred to a PVDF membrane at a pore size of 0.22 μm. After 1.5 hours of transmembrane at a constant current of 200 mA, the PVDF membrane was removed and blocked in 5% skimmed milk for 1 hour. After completion of blocking, the membrane was incubated with the primary antibody (Ac-H3 antibody was purchased from Santa Cruz, Art. No.: sc-56616; Ac-α-tubulin antibody was purchased from Santa Cruz, Art. No.: sc-23950) overnight at 4° C. and then washed with TBS/T for 10 minutes for 3 times. The membrane was incubated with the horseradish peroxidase-coupled secondary antibody at room temperature for 1 hour, and then washed with TBS/T for 10 minutes for 3 times. After washing with TBS for 5 minutes, the membrane was exposed and developed by using a film in the darkroom. The detected GAPDH protein was an internal reference protein (GAPDH antibody was purchased from ZSGB-Bio, Art. No.: TA-08).

HDAC2 = HDAC2 (Homo sapiens, UniProt Q92769); settings: read-out: IC50 HDAC2
Experimental: (§1) The HDAC inhibitory activity was determined by fluorescence-coupled acetylated peptide substrate assay (Lys-Ac-AMC). HDAC1 protein was purchased from BPS Bioscience, and the reaction buffer system was a modified tris(hydroxymethyl)aminomethane buffer (pH 7.0). The small molecule compounds of the present invention were prepared by being dissolved in 100% DMSO. HDAC was prepared in a buffer at a certain concentration as an enzyme solution; trypsin and fluorescent group 4-amino-7-coumarin coupled-acetylated peptide (Ac-peptide) substrate were prepared in a buffer at a certain concentration as a substrate solution. The compounds were added into the reaction wells in a 384-well plate at a designed concentration of 10 μM, 1 μM, 0.5 μM, 0.1 μM, 0.05 μM, 0.01 μM, 0.005 μM, 0.001 μM, and 0.00005 μM, respectively, and then 15 μl of the HDAC solution was added into the reaction wells (15 μl of blank buffer to the control well). […] The results were analyzed by GraphPad Prism software and IC50 values were calculated according to the formula: Y=Background Data+(Top Data−Background Data)/(1+10^((Log IC50−X) a curve slope)), where Y: the inhibition rate (%) and X: the concentration of the compound.

Lung cancer A549 = assay: Cell proliferative activity (MTT / cck-8); assay type: cell-based; settings: Homo sapiens, read-out: Half-Inhibitory Concentration IC50 A549
HDAC8 = target: T1, HDAC8 (Homo sapiens, UniProt Q9BY41); assay: HDAC inhibitory activity, fluorescence-coupled acetylated peptide substrate assay
T1 sequence (Q9BY41 1-377): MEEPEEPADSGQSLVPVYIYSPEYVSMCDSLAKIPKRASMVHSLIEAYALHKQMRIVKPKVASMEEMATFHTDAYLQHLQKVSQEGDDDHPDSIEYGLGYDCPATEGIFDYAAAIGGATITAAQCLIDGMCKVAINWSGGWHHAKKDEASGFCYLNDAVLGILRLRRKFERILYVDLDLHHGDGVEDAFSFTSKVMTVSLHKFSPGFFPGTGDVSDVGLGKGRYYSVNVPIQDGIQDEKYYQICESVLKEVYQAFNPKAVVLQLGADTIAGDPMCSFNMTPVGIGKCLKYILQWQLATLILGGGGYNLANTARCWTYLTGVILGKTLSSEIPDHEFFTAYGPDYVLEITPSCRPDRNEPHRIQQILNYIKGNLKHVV
Experimental: as §1

HDAC2, sequence (Q92769 whole entry): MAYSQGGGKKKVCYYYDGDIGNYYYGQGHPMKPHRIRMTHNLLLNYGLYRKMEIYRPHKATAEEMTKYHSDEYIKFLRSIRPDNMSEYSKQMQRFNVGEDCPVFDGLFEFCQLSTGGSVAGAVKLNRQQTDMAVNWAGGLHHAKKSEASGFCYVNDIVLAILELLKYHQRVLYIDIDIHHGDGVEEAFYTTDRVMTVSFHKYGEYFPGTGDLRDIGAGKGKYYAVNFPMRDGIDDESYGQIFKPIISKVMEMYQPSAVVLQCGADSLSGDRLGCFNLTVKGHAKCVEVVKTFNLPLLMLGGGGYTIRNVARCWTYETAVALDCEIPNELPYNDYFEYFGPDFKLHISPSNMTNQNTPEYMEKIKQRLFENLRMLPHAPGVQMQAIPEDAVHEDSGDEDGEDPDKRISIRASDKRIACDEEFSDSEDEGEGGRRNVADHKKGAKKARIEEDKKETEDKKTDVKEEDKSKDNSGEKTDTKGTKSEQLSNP

SMILES: COc1ccc(N(C)c2nc(C)nc3ccccc23)cc1OCCCC(=O)NO [III-2, N-hydroxy-4-(2-methoxy-5-(methyl(2-methyl-4-quinazolinyl)amino)phenoxy) butanamide]
- activity compared with positive control SAHA (MV4-11 cells): superior to that of the positive control group SAHA
- tumor growth (MV4-11 cells; compared with blank control, P<0.01): significantly inhibited tumor growth
- survival time of mice (HCT116 cells; 50 mg/kg intravenously once every other day, 9 times, vs blank control, P<0.01): significantly prolonged the survival time of mice
- effect prolonging the survival time compared with positive control group (HCT116 cells; 50 mg/kg intravenously, SAHA 50 mg/kg intraperitoneally): superior to that of the positive control group
- IC50 (Colon cancer HT29): 72 ± 37 nM
- tumor inhibitory rate (HBL-1 cells; 10 mg/kg intragastrically once every other day): 31.70%
- tumor inhibitory rate (HBL-1 cells; 20 mg/kg intragastrically once every other day): 25.23%
- tumor inhibitory rate (HBL-1 cells; 40 mg/kg intragastrically once every other day): 58.22%
- tumor inhibitory rate (HBL-1 cells; 80 mg/kg intragastrically once every other day): 56.88%
- IC50 (Ovarian cancer A2780s): 46 ± 11 nM
- Area under the curve ([1]; intravenous administration): 2434.117 μg/L · h
- Clearance rate ([1]; intravenous administration): 116.8 mL/min/kg
- Distribution volume ([1]; intravenous administration): 61.263 L/kg
- Half-life ([1]; intravenous administration): 7.658 h
- Maximum plasma concentration ([1]; intravenous administration): 2213.217 µg/L
- Bioavailability ([1]; oral administration): 47.0%
- Area under the curve ([1]; oral administration): 1242.234 μg/L · h
- Clearance rate ([1]; oral administration): 214.62 mL/min/kg
- Distribution volume ([1]; oral administration): 154.811 L/kg
- Half-life ([1]; oral administration): 9.62 h
- Maximum plasma concentration ([1]; oral administration): 238.133 µg/L
- acetylation of H3 (Ac-H3) [2]: deacetylation of Ac-H3 by the compound III-2 was also demonstrated
- acetylation of α-tubulin [2]: up-regulate the acetylated α-tubulin protease in a dose-dependent manner
- IC50 (HDAC2): 386 ± 7 nM
- IC50 (Lung cancer A549): 104 ± 29 nM
- IC50 (HDAC8; IC50 HDAC8, Table 2): > 1000 nM
- IC50 (HDAC8; read-out: IC50 HDAC8, Table 4, Class I): 3400 ± 487 nM

— patent US10532053B2, “Histone deacetylase inhibitor, and preparation method and use thereof” (GUANGDONG ZHONGSHENG PHARMACEUTICAL CO., LTD, priority 2015, dated 2020)
